What was measured:
Assay in all cases: relative viability (nuclei count vs DMSO), 5 days (fraction); higher = more cells survive
Decitabine + Olaparib = compound: Nc1ncn([C@H]2C[C@H](O)[C@@H](CO)O2)c(=O)n1 [Decitabine] + O=C(c1cc(Cc2n[nH]c(=O)c3ccccc23)ccc1F)N1CCN(C(=O)C2CC2)CC1 [Olaparib] (partner 8 µM)
In short: (§1)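 Lung cancer cell lines were pin-tool dosed in 1536-well plates on the day after seeding, with either a lone drug or a fixed anchor-drug dose plus five library-drug doses (not always all listed) in √10 steps. Nuclei were counted on 4× images after 5 days. Relative viability is the ratio of treated-well to vehicle-well nuclei counts, with each value a median of duplicate plates.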

Cediranib + Vorinostat = compound: COc1cc2c(Oc3ccc4[nH]c(C)cc4c3F)ncnc2cc1OCCCN1CCCC1 [Cediranib] + O=C(CCCCCCC(=O)Nc1ccccc1)NO [Vorinostat] (partner 1 µM)
In short: as §1

Cediranib + Lapatinib = compound: COc1cc2c(Oc3ccc4[nH]c(C)cc4c3F)ncnc2cc1OCCCN1CCCC1 [Cediranib] + CS(=O)(=O)CCNCc1ccc(-c2ccc3ncnc(Nc4ccc(OCc5cccc(F)c5)c(Cl)c4)c3c2)o1 [Lapatinib] (partner 2 µM)
In short: as §1

[1] = compound: O=C(C[C@H]1NCCC[C@@H]1O)Cn1cnc2cc(Br)c(Cl)cc2c1=O (racemic) [Halofuginone] + Cc1cc(Nc2cc(N3CCN(C)CC3)nc(Sc3ccc(NC(=O)C4CC4)cc3)n2)n[nH]1 [Tozasertib] (partner 0.1 µM)
In short: as §1

Cell Line	relative viability (Decitabine + Olaparib; first compound 0.04 µM)	relative viability (Decitabine + Olaparib; first compound 0.1265 µM)	relative viability (Decitabine + Olaparib; first compound 0.4 µM)	relative viability (Decitabine + Olaparib; first compound 1.265 µM)	relative viability (Decitabine + Olaparib; first compound 4 µM)	relative viability (Cediranib + Vorinostat; first compound 0.04 µM)	relative viability (Cediranib + Vorinostat; first compound 0.1265 µM)	relative viability (Cediranib + Vorinostat; first compound 0.4 µM)	relative viability (Cediranib + Vorinostat; first compound 1.265 µM)	relative viability (Cediranib + Vorinostat; first compound 4 µM)	relative viability (Cediranib + Lapatinib; first compound 0.04 µM)	relative viability (Cediranib + Lapatinib; first compound 0.1265 µM)	relative viability (Cediranib + Lapatinib; first compound 0.4 µM)	relative viability (Cediranib + Lapatinib; first compound 1.265 µM)	relative viability (Cediranib + Lapatinib; first compound 4 µM)	relative viability ([1]; first compound 0.001 µM)	relative viability ([1]; first compound 0.003162 µM)	relative viability ([1]; first compound 0.01 µM)	relative viability ([1]; first compound 0.03162 µM)	relative viability ([1]; first compound 0.1 µM)
SW 1573	0.257	0.239	0.17	0.127	0.111	1.03	0.532	0.991	0.582	0.806	1.17	1.11	0.959	1.07	1.3	0.242	0.192	0.111	0.129	0.121
NCI-H661	0.56	0.459	0.409	0.345	0.338	0.905	0.796	0.763	0.773	0.911	0.552	0.738	0.403	0.494	0.544	0.365	0.35	0.322	0.33	0.391
LU99A	0.247	0.238	0.217	0.193	0.187	0.456	–	0.51	0.407	0.578	1.14	–	0.936	0.877	1.06	0.277	0.295	0.271	0.296	0.36
LCLC-97TM1	0.0932	0.124	0.0895	0.0603	0.335	0.655	–	0.536	0.707	1.08	1.03	–	0.976	1.15	1.01	0.265	0.247	0.203	0.243	0.208
LC-2-ad	0.441	0.402	0.397	0.343	0.274	0.678	0.625	0.669	0.825	0.705	1.07	0.656	0.94	1.02	0.731	0.476	0.508	0.422	0.351	0.225
NCI-H1395	0.518	0.432	0.465	0.438	0.418	0.686	0.689	0.601	0.645	0.711	0.961	–	1.35	0.97	1.01	0.893	0.72	0.797	0.769	0.656
NCI-H2228	0.194	0.235	0.104	0.145	0.157	0.719	0.763	0.633	0.563	0.529	1.06	1.07	0.928	1.18	1.17	0.321	0.324	0.19	0.133	0.0815
NCI-H1944	0.281	0.307	0.255	0.192	0.207	0.588	0.694	0.502	0.53	0.643	0.969	0.8	0.78	0.705	0.908	0.264	0.282	0.243	0.237	0.196
HOP-62	0.108	0.141	0.0882	0.0978	0.132	0.633	0.418	0.575	0.468	0.896	1.15	–	0.879	1.01	1.35	0.445	0.406	0.386	0.32	0.231
NCI-H2347	0.528	0.578	0.469	0.464	0.424	0.693	0.621	0.538	0.577	0.512	1.07	0.512	0.916	0.909	0.964	0.558	0.521	0.662	0.692	0.418
NCI-H2087	0.187	0.236	0.217	0.145	0.14	0.939	0.694	0.474	0.671	0.63	1.08	0.825	1.01	0.984	1.07	0.28	0.322	0.251	0.23	0.114
EPLC-272H	0.32	0.255	–	0.15	0.337	0.38	0.448	0.401	0.527	0.383	0.834	–	0.862	0.77	0.671	0.241	0.333	0.318	0.279	0.247
LXF-289	0.302	0.255	0.203	0.157	0.128	0.754	–	0.724	0.812	0.787	0.988	0.816	0.852	0.958	0.846	0.196	0.199	0.245	0.173	0.178
COR-L23	0.166	0.181	0.177	0.143	0.119	0.52	0.428	0.412	0.433	0.458	1.1	0.899	0.895	0.892	1.32	0.249	0.218	0.198	0.153	0.106
RERF-LC-KJ	0.615	0.608	–	0.448	0.495	0.805	0.226	0.62	0.674	0.761	0.94	0.751	0.783	0.836	0.954	0.549	0.484	0.468	0.456	0.346
NCI-H1755	0.648	0.609	0.43	0.359	0.365	0.808	0.65	0.683	0.763	0.762	1.14	0.778	1.01	1.05	0.941	0.591	0.569	0.567	0.591	0.461
PC-14	0.114	0.0887	0.0551	0.0482	0.0711	0.831	0.755	0.744	0.801	0.451	0.308	0.461	0.297	0.301	0.404	0.701	0.626	0.495	0.529	0.208

Cell Line	relative viability (Decitabine + Olaparib; first compound 0.04 µM)	relative viability (Decitabine + Olaparib; first compound 0.1265 µM)	relative viability (Decitabine + Olaparib; first compound 0.4 µM)	relative viability (Decitabine + Olaparib; first compound 1.265 µM)	relative viability (Decitabine + Olaparib; first compound 4 µM)	relative viability (Cediranib + Vorinostat; first compound 0.04 µM)	relative viability (Cediranib + Vorinostat; first compound 0.1265 µM)	relative viability (Cediranib + Vorinostat; first compound 0.4 µM)	relative viability (Cediranib + Vorinostat; first compound 1.265 µM)	relative viability (Cediranib + Vorinostat; first compound 4 µM)	relative viability (Cediranib + Lapatinib; first compound 0.04 µM)	relative viability (Cediranib + Lapatinib; first compound 0.1265 µM)	relative viability (Cediranib + Lapatinib; first compound 0.4 µM)	relative viability (Cediranib + Lapatinib; first compound 1.265 µM)	relative viability (Cediranib + Lapatinib; first compound 4 µM)	relative viability ([1]; first compound 0.001 µM)	relative viability ([1]; first compound 0.003162 µM)	relative viability ([1]; first compound 0.01 µM)	relative viability ([1]; first compound 0.03162 µM)	relative viability ([1]; first compound 0.1 µM)
NCI-H322M	0.641	0.684	0.646	0.47	0.383	0.876	1.05	0.818	0.983	0.871	0.578	0.915	0.562	0.617	0.52	0.461	0.468	0.462	0.467	0.258
NCI-H1666	0.65	0.698	0.723	0.619	0.651	1.18	1.06	0.908	0.955	1.03	0.678	0.339	0.554	0.541	0.69	0.656	0.644	0.56	0.596	0.704
A-427	0.474	0.443	0.281	0.248	0.217	0.846	–	0.835	0.853	0.882	1.03	–	0.938	0.897	0.981	0.186	0.225	0.224	0.198	0.192
NCI-H1651	0.136	0.163	0.12	0.144	0.118	0.518	0.591	0.58	0.53	0.555	0.819	0.919	0.825	0.668	0.855	1.03	0.773	0.702	0.471	0.352
NCI-H1793	0.455	0.307	0.281	0.19	0.212	0.954	0.679	0.67	0.49	0.797	0.838	0.693	0.654	–	0.742	0.418	0.359	0.276	0.34	0.226
NCI-H520	0.201	0.297	0.251	0.188	0.167	0.792	0.622	0.581	0.576	0.676	0.977	–	0.605	0.759	0.785	0.457	0.457	0.461	0.467	0.322
201T	0.555	0.494	0.406	–	0.781	1.08	0.631	0.84	0.973	1.04	1.08	0.897	1.02	1.01	0.996	1	0.813	0.995	0.779	0.548
NCI-H460	0.176	0.118	0.0739	0.0563	0.0657	0.795	0.792	0.661	0.678	0.822	1.05	1.01	0.905	1	0.639	0.611	0.572	0.438	0.444	0.19
NCI-H596	0.609	0.602	0.353	0.431	0.56	0.584	0.488	0.585	0.682	0.836	1.19	1.29	1.06	0.868	1.06	1.04	0.871	0.953	0.543	0.303
HARA	0.379	0.248	0.28	0.147	0.168	0.549	0.315	0.489	0.64	0.519	0.762	0.994	0.7	0.708	0.703	0.116	0.118	0.105	0.105	0.0853
NCI-H2170	0.271	0.201	0.216	0.137	0.134	0.88	–	0.793	0.718	0.962	0.295	0.277	0.243	0.232	0.268	0.731	0.678	0.812	0.679	0.728
NCI-H2126	0.63	0.546	0.459	0.42	0.85	0.738	0.578	0.725	0.614	0.81	0.749	0.595	0.715	0.55	0.741	0.918	0.845	0.859	0.793	0.62
HCC-827	0.146	0.279	0.218	0.182	0.205	0.847	0.574	0.846	0.729	1.12	0.203	–	0.178	0.194	0.208	0.419	0.39	0.427	0.398	0.456
ABC-1	–	0.616	0.77	0.473	0.573	1.11	0.821	1.14	1.13	1.24	1.24	1.39	1.14	1.06	1.24	0.141	0.142	0.162	0.189	0.158
NCI-H650	0.196	0.198	0.203	0.123	0.152	0.363	0.319	0.526	0.356	0.454	0.956	0.444	0.913	0.8	0.938	0.912	0.772	0.709	0.67	0.426
BEN	0.666	0.595	0.457	0.43	0.409	0.669	0.445	0.592	0.552	0.588	0.945	–	0.665	0.598	0.681	0.535	0.528	0.456	0.511	0.482

From the supplement of paper PMC10307832
